Measured values reported in ChEMBL document CHEMBL1201862, “PubChem BioAssay data set” (2004).
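Results reflect a 48-hour exposure of cells in 96-well plates to compound at five concentrations. The concentration for 50% growth inhibition is given as GI50.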 Activity calls are given as the source filed them. Cut-off read from the data, not from the text of the source: active = GI50 up to about 1.1 µM and inactive = higher.

Assays:
Assay in all cases: growth of human tumour cells (NCI), 48 h
786-0 = test system: 786-0
A498 = test system: A498
A549 = test system: A549
ACHN = test system: ACHN
CCRF-CEM = test system: CCRF-CEM
COLO 205 = test system: COLO 205
DLD-1 = test system: DLD-1
DMS-114 = test system: DMS-114
DMS-273 = test system: DMS-273
EKVX = test system: EKVX
HCC 2998 = test system: HCC 2998
HCT-116 = test system: HCT-116
HCT-15 = test system: HCT-15
HL-60 = test system: HL-60
HOP-18 = test system: HOP-18
HOP-62 = test system: HOP-62
HOP-92 = test system: HOP-92
HT-29 = test system: HT-29
IGROV-1 = test system: IGROV-1
KM-20L2 = test system: KM-20L2
KM12 = test system: KM12
LOX IMVI = test system: LOX IMVI
LXFL 529 = test system: LXFL 529
M14 = test system: M14
M19-MEL = test system: M19-MEL
Malme-3M = test system: Malme-3M
NCI-H226 = test system: NCI-H226
NCI-H23 = test system: NCI-H23
NCI-H460 = test system: NCI-H460
NCI-H522 = test system: NCI-H522
OVCAR-3 = test system: OVCAR-3
OVCAR-4 = test system: OVCAR-4
OVCAR-5 = test system: OVCAR-5
OVCAR-8 = test system: OVCAR-8
RXF 393 = test system: RXF 393
SF-268 = test system: SF-268
SF-295 = test system: SF-295
SF-539 = test system: SF-539
SK-MEL-28 = test system: SK-MEL-28
SK-MEL-2 = test system: SK-MEL-2
SK-MEL-5 = test system: SK-MEL-5
SK-OV-3 = test system: SK-OV-3
SN12C = test system: SN12C
SNB-19 = test system: SNB-19
SNB-75 = test system: SNB-75
SNB-78 = test system: SNB-78
SW-620 = test system: SW-620
TK-10 = test system: TK-10
U-251 = test system: U-251
UACC-257 = test system: UACC-257
UACC-62 = test system: UACC-62
UO-31 = test system: UO-31
XF498 = test system: XF498
CAKI-1 = test system: CAKI-1
K562 = test system: K562
MCF7 = test system: MCF7
NCI/ADR-RES = test system: NCI/ADR-RES
RPMI-8226 = test system: RPMI-8226

**Q.** How did the GI50 (786-0) turn out when CCCCCCCCCCCCCC(=O)CSCCNC(=O)CCNC(=O)[C@@H](O)C(C)(C)COP(=O)(O)OP(=O)(O)OCC1OC(n2cnc3c(N)ncnc32)C(O)C1OP(=O)(O)O (some centres undefined) was run?
**A.** 15.5 µM (inactive)

**Q.** And the GI50 (A498)?
**A.** 18.4 µM (inactive)

**Q.** What about the GI50 (A549) of the same compound?
**A.** 20.1 µM (inactive)

**Q.** What about the GI50 (ACHN) of the same compound?
**A.** 18.2 µM (inactive)

**Q.** And the GI50 (CCRF-CEM)?
**A.** 24.4 µM (inactive)

**Q.** What about the GI50 (COLO 205) of the same compound?
**A.** 13.1 µM (inactive)

**Q.** What about the GI50 (DLD-1) of the same compound?
**A.** 19 µM (inactive)

**Q.** And the GI50 (DMS-114)?
**A.** 15.6 µM (inactive)

**Q.** What about the GI50 (DMS-273) of the same compound?
**A.** 11.2 µM (inactive)

**Q.** What about the GI50 (EKVX) of the same compound?
**A.** 17.9 µM (inactive)

**Q.** What about the GI50 (HCC 2998) of the same compound?
**A.** 16.5 µM (inactive)

**Q.** What about the GI50 (HCT-116) of the same compound?
**A.** 15.8 µM (inactive)

**Q.** What about the GI50 (HCT-15) of the same compound?
**A.** 17.1 µM

**Q.** What about the GI50 (HL-60) of the same compound?
**A.** 20.5 µM (inactive)

**Q.** And the GI50 (HOP-18)?
**A.** 17.5 µM (inactive)

**Q.** And the GI50 (HOP-62)?
**A.** 16 µM (inactive)

**Q.** And the GI50 (HOP-92)?
**A.** 11.5 µM (inactive)

**Q.** And the GI50 (HT-29)?
**A.** 18.8 µM (inactive)

**Q.** And the GI50 (IGROV-1)?
**A.** 13.6 µM (inactive)

**Q.** And the GI50 (KM-20L2)?
**A.** 19.4 µM (inactive)

**Q.** What about the GI50 (KM12) of the same compound?
**A.** 14.6 µM (inactive)

**Q.** And the GI50 (LOX IMVI)?
**A.** 18.4 µM (inactive)

**Q.** And the GI50 (LXFL 529)?
**A.** 17.5 µM (inactive)

**Q.** And the GI50 (M14)?
**A.** 18.1 µM (inactive)

**Q.** And the GI50 (M19-MEL)?
**A.** 18.9 µM (inactive)

**Q.** What about the GI50 (Malme-3M) of the same compound?
**A.** 17.9 µM (inactive)

**Q.** What about the GI50 (NCI-H226) of the same compound?
**A.** 18.2 µM (inactive)

**Q.** And the GI50 (NCI-H23)?
**A.** 18.7 µM (inactive)

**Q.** What about the GI50 (NCI-H460) of the same compound?
**A.** 25.6 µM (inactive)

**Q.** What about the GI50 (NCI-H522) of the same compound?
**A.** 10.6 µM (inactive)

**Q.** What about the GI50 (OVCAR-3) of the same compound?
**A.** 38 µM (inactive)

**Q.** And the GI50 (OVCAR-4)?
**A.** 6.75 µM (inactive)

**Q.** And the GI50 (OVCAR-5)?
**A.** 32.4 µM (inactive)

**Q.** What about the GI50 (OVCAR-8) of the same compound?
**A.** 27.4 µM (inactive)

**Q.** What about the GI50 (RXF 393) of the same compound?
**A.** 25 µM (inactive)

**Q.** What about the GI50 (SF-268) of the same compound?
**A.** 20 µM (inactive)

**Q.** And the GI50 (SF-295)?
**A.** 13.4 µM (inactive)

**Q.** And the GI50 (SF-539)?
**A.** 16.2 µM (inactive)

**Q.** And the GI50 (SK-MEL-28)?
**A.** 18.3 µM (inactive)

**Q.** And the GI50 (SK-MEL-2)?
**A.** 17.2 µM (inactive)

**Q.** And the GI50 (SK-MEL-5)?
**A.** 18.9 µM (inactive)

**Q.** What about the GI50 (SK-OV-3) of the same compound?
**A.** 14.6 µM (inactive)

**Q.** What about the GI50 (SN12C) of the same compound?
**A.** 16.4 µM (inactive)

**Q.** And the GI50 (SNB-19)?
**A.** 18.6 µM (inactive)

**Q.** What about the GI50 (SNB-75) of the same compound?
**A.** 5.7 µM (inactive)

**Q.** And the GI50 (SNB-78)?
**A.** 15.5 µM (inactive)

**Q.** And the GI50 (SW-620)?
**A.** 19.4 µM (inactive)

**Q.** And the GI50 (TK-10)?
**A.** 68.2 µM (inactive)

**Q.** And the GI50 (U-251)?
**A.** 18 µM (inactive)

**Q.** And the GI50 (UACC-257)?
**A.** 18.1 µM (inactive)

**Q.** What about the GI50 (UACC-62) of the same compound?
**A.** 15 µM (inactive)

**Q.** And the GI50 (UO-31)?
**A.** 14.4 µM (inactive)

**Q.** And the GI50 (XF498)?
**A.** 18.5 µM (inactive)

**Q.** C[C@H]1[C@@H]2C[C@@H]3O[C@@]34[C@H]3CCC5Cc6nc7c(nc6C[C@@]5(C)[C@]3(O)CC(=O)[C@@]24CO[C@]12OC(C)(C)C[C@@H]2O)CC1CC[C@@H]2C3=C[C@H]4O[C@@]5(OC(C)(CO)C[C@@H]5O)[C@H](C)[C@@]4(O)[C@]3(C)[C@@H](O)CC2[C@]1(C)C7 (some centres undefined) was tested. Which GI50 (A498) did it give?
**A.** 0.0108 µM (active)

**Q.** And the GI50 (A549)?
**A.** 0.0168 µM (active)

**Q.** What about the GI50 (CAKI-1) of the same compound?
**A.** 0.0809 µM (active)

**Q.** And the GI50 (CCRF-CEM)?
**A.** 0.0105 µM (active)

**Q.** What about the GI50 (COLO 205) of the same compound?
**A.** 0.0655 µM (active)

**Q.** And the GI50 (DLD-1)?
**A.** 0.191 µM (active)

**Q.** And the GI50 (DMS-114)?
**A.** 0.0119 µM (active)

**Q.** And the GI50 (DMS-273)?
**A.** 0.00345 µM (active)

**Q.** And the GI50 (EKVX)?
**A.** 0.0573 µM (active)

**Q.** What about the GI50 (HCC 2998) of the same compound?
**A.** 0.506 µM (active)

**Q.** And the GI50 (HCT-116)?
**A.** 0.0583 µM (active)

**Q.** And the GI50 (HCT-15)?
**A.** 0.121 µM

**Q.** And the GI50 (HL-60)?
**A.** 0.00361 µM (active)

**Q.** What about the GI50 (HOP-18) of the same compound?
**A.** > 3.52 µM (inactive)

**Q.** What about the GI50 (HOP-62) of the same compound?
**A.** 0.0109 µM (active)

**Q.** And the GI50 (HOP-92)?
**A.** 0.0254 µM (active)

**Q.** And the GI50 (HT-29)?
**A.** 0.014 µM (active)

**Q.** And the GI50 (IGROV-1)?
**A.** 0.0291 µM (active)

**Q.** What about the GI50 (K562) of the same compound?
**A.** 0.0266 µM (active)

**Q.** What about the GI50 (KM-20L2) of the same compound?
**A.** 0.0378 µM (active)

**Q.** What about the GI50 (KM12) of the same compound?
**A.** 0.0706 µM (active)

**Q.** What about the GI50 (LOX IMVI) of the same compound?
**A.** 0.024 µM (active)

**Q.** What about the GI50 (M19-MEL) of the same compound?
**A.** 2.77 µM (inactive)

**Q.** What about the GI50 (MCF7) of the same compound?
**A.** 0.0345 µM (active)

**Q.** What about the GI50 (Malme-3M) of the same compound?
**A.** 0.0381 µM (active)

**Q.** What about the GI50 (NCI-H226) of the same compound?
**A.** 0.0184 µM (active)

**Q.** And the GI50 (NCI-H23)?
**A.** 0.0414 µM (active)

**Q.** And the GI50 (NCI-H460)?
**A.** 0.00955 µM (active)

**Q.** What about the GI50 (NCI-H522) of the same compound?
**A.** 0.0955 µM (active)

**Q.** And the GI50 (NCI/ADR-RES)?
**A.** > 3.52 µM (inactive)

**Q.** What about the GI50 (OVCAR-3) of the same compound?
**A.** 0.7 µM (active)

**Q.** What about the GI50 (OVCAR-4) of the same compound?
**A.** 0.194 µM (active)

**Q.** And the GI50 (OVCAR-5)?
**A.** 0.0343 µM (active)

**Q.** What about the GI50 (OVCAR-8) of the same compound?
**A.** 3.02 µM (inactive)

**Q.** And the GI50 (RPMI-8226)?
**A.** 0.00139 µM (active)

**Q.** What about the GI50 (RXF 393) of the same compound?
**A.** 0.00178 µM (active)

**Q.** And the GI50 (SF-268)?
**A.** 0.0181 µM (active)

**Q.** And the GI50 (SF-295)?
**A.** 0.00215 µM (active)

**Q.** What about the GI50 (SF-539) of the same compound?
**A.** 0.0179 µM (active)

**Q.** What about the GI50 (SK-MEL-2) of the same compound?
**A.** 0.0239 µM (active)

**Q.** And the GI50 (SK-MEL-5)?
**A.** 0.0873 µM (active)

**Q.** What about the GI50 (SK-OV-3) of the same compound?
**A.** 0.0168 µM (active)

**Q.** What about the GI50 (SN12C) of the same compound?
**A.** > 3.52 µM (inactive)

**Q.** What about the GI50 (SNB-75) of the same compound?
**A.** 0.00071 µM (active)

**Q.** And the GI50 (SNB-78)?
**A.** 0.00792 µM (active)

**Q.** And the GI50 (SW-620)?
**A.** 0.0333 µM (active)

**Q.** What about the GI50 (U-251) of the same compound?
**A.** 0.00511 µM (active)

**Q.** What about the GI50 (UACC-257) of the same compound?
**A.** 0.139 µM (active)

**Q.** What about the GI50 (UACC-62) of the same compound?
**A.** 0.0175 µM (active)

**Q.** And the GI50 (UO-31)?
**A.** 0.223 µM (active)

**Q.** And the GI50 (XF498)?
**A.** 0.00769 µM (active)
